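Assay format: 96-well plates, 48-hour exposure. TGI: concentration producing complete growth inhibition.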
Key:
Experiment in all cases: inhibition of tumour cell growth, NCI panel, 48 h
NCI-H23 lung = system: NCI-H23 lung
SF-295 CNS = system: SF-295 CNS
RPMI-8226 leukemia = system: RPMI-8226 leukemia
HCT-15 colon = system: HCT-15 colon
IGROV1 ovarian = system: IGROV1 ovarian
UO-31 renal = system: UO-31 renal
SK-MEL-2 melanoma = system: SK-MEL-2 melanoma
UACC-257 melanoma = system: UACC-257 melanoma
KM20L2 colon = system: KM20L2 colon
SW-620 colon = system: SW-620 colon
SK-OV-3 ovarian = system: SK-OV-3 ovarian
HOP-92 NSCLC = system: HOP-92 NSCLC
HL-60(TB) leukemia = system: HL-60(TB) leukemia
COLO 205 colon = system: COLO 205 colon
TK-10 renal = system: TK-10 renal
NCI-H226 lung = system: NCI-H226 lung
CCRF-CEM leukemia = system: CCRF-CEM leukemia
OVCAR-3 ovarian = system: OVCAR-3 ovarian
HCT-116 colon = system: HCT-116 colon
SF-539 CNS = system: SF-539 CNS
OVCAR-8 ovarian = system: OVCAR-8 ovarian
CAKI-1 renal = system: CAKI-1 renal
NCI-H522 lung = system: NCI-H522 lung
HCC-2998 colon = system: HCC-2998 colon
ACHN renal = system: ACHN renal
MALME-3M melanoma = system: MALME-3M melanoma
HOP-18 NSCLC = system: HOP-18 NSCLC
K-562 leukemia = system: K-562 leukemia
U251 CNS = system: U251 CNS
MOLT-4 leukemia = system: MOLT-4 leukemia
EKVX NSCLC = system: EKVX NSCLC
HT29 colon = system: HT29 colon
SK-MEL-28 melanoma = system: SK-MEL-28 melanoma
RXF 393 renal = system: RXF 393 renal
LXFL 529 NSCLC = system: LXFL 529 NSCLC
HOP-62 NSCLC = system: HOP-62 NSCLC
UACC-62 melanoma = system: UACC-62 melanoma
A549 NSCLC = system: A549 NSCLC
SNB-78 CNS = system: SNB-78 CNS
SNB-75 CNS = system: SNB-75 CNS
OVCAR-5 ovarian = system: OVCAR-5 ovarian
NCI-H460 lung = system: NCI-H460 lung
SK-MEL-5 melanoma = system: SK-MEL-5 melanoma
SF-268 CNS = system: SF-268 CNS
RXF-631 renal = system: RXF-631 renal
M14 melanoma = system: M14 melanoma
SNB-19 CNS = system: SNB-19 CNS
OVCAR-4 ovarian = system: OVCAR-4 ovarian
SN12C renal = system: SN12C renal
DMS 114 small cell lung = system: DMS 114 small cell lung
M19-MEL melanoma = system: M19-MEL melanoma
KM12 colon = system: KM12 colon
A498 renal = system: A498 renal
SR leukemia = system: SR leukemia
DMS 273 small cell lung = system: DMS 273 small cell lung

Measured: TGI

Cc1cc(N(CCC#N)S(=O)(=O)c2ccccc2)ccc1C=Nc1cccc(C(=O)O)c1
not listed: KM12 colon | A498 renal | SR leukemia | DMS 273 small cell lung
> 100 µM: all other assays above

CCCC(=O)OCC1OC2OC(C)(C)OC2C2OC(C)(C)OC12 (stereo not given)
61.1 µM: TK-10 renal
not listed: RPMI-8226 leukemia | HCT-15 colon | SK-MEL-2 melanoma | KM20L2 colon | SW-620 colon | COLO 205 colon | OVCAR-3 ovarian | SF-539 CNS | CAKI-1 renal | HCC-2998 colon | MALME-3M melanoma | HOP-18 NSCLC | K-562 leukemia | LXFL 529 NSCLC | UACC-62 melanoma | SNB-75 CNS | SK-MEL-5 melanoma | SF-268 CNS | OVCAR-4 ovarian | SN12C renal | DMS 114 small cell lung
> 100 µM: all other assays above
